Measurements published in PubChem BioAssay (NCI).
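Assay format: 96-well plates, 48-hour exposure. GI50 marks 50% less growth. TGI: total growth inhibition.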

Legend:
Assay in all cases: DTP human tumour cell line panel, 48 h
EKVX NSCLC = test system: EKVX NSCLC
KM12 colon = test system: KM12 colon
SN12C renal = test system: SN12C renal
SNB-75 CNS = test system: SNB-75 CNS
MDA-MB-435 = test system: MDA-MB-435
HS 578T breast = test system: HS 578T breast
SNB-19 CNS = test system: SNB-19 CNS
K-562 leukemia = test system: K-562 leukemia
SK-MEL-5 melanoma = test system: SK-MEL-5 melanoma
MCF7 breast = test system: MCF7 breast
TK-10 renal = test system: TK-10 renal
SK-MEL-28 melanoma = test system: SK-MEL-28 melanoma
MALME-3M melanoma = test system: MALME-3M melanoma
SW-620 colon = test system: SW-620 colon
NCI-H460 lung = test system: NCI-H460 lung
UACC-257 melanoma = test system: UACC-257 melanoma
HT29 colon = test system: HT29 colon
OVCAR-5 ovarian = test system: OVCAR-5 ovarian
SR leukemia = test system: SR leukemia
SK-OV-3 ovarian = test system: SK-OV-3 ovarian
T-47D breast = test system: T-47D breast
U251 CNS = test system: U251 CNS
HOP-62 NSCLC = test system: HOP-62 NSCLC
UO-31 renal = test system: UO-31 renal
HOP-92 NSCLC = test system: HOP-92 NSCLC
RXF 393 renal = test system: RXF 393 renal
OVCAR-8 ovarian = test system: OVCAR-8 ovarian
SF-295 CNS = test system: SF-295 CNS

COc1cc(/C=C2\C(=O)Nc3ccccc32)cc(OC)c1O
GI50 (EKVX NSCLC): 4.86 µM | TGI (EKVX NSCLC): 48.2 µM | GI50 (KM12 colon): 2.53 µM | TGI (KM12 colon): 11.5 µM | GI50 (SN12C renal): 3.61 µM | TGI (SN12C renal): 23.3 µM | GI50 (SNB-75 CNS): 1.17 µM | TGI (SNB-75 CNS): 8.44 µM | GI50 (MDA-MB-435): 0.649 µM | TGI (MDA-MB-435): 2.21 µM | GI50 (HS 578T breast): 1.77 µM | TGI (HS 578T breast): 6.11 µM | GI50 (SNB-19 CNS): 4.45 µM | TGI (SNB-19 CNS): 55.6 µM | GI50 (K-562 leukemia): 2.12 µM | TGI (K-562 leukemia): > 100 µM | GI50 (SK-MEL-5 melanoma): 2.87 µM | TGI (SK-MEL-5 melanoma): 10.8 µM | GI50 (MCF7 breast): 0.728 µM | TGI (MCF7 breast): 15 µM | GI50 (TK-10 renal): 7.14 µM | TGI (TK-10 renal): 37.1 µM | GI50 (SK-MEL-28 melanoma): 5.06 µM | TGI (SK-MEL-28 melanoma): 23 µM | GI50 (MALME-3M melanoma): 2.98 µM | TGI (MALME-3M melanoma): 21.8 µM | GI50 (SW-620 colon): 3.39 µM | TGI (SW-620 colon): 13.1 µM | GI50 (NCI-H460 lung): 3.12 µM | TGI (NCI-H460 lung): 11.7 µM | GI50 (UACC-257 melanoma): 1.81 µM | TGI (UACC-257 melanoma): 18.7 µM | GI50 (HT29 colon): 9.07 µM | TGI (HT29 colon): 31.1 µM | GI50 (OVCAR-5 ovarian): 4.71 µM | TGI (OVCAR-5 ovarian): 18.8 µM | GI50 (SR leukemia): 1.6 µM | TGI (SR leukemia): 16.9 µM | GI50 (SK-OV-3 ovarian): 3.88 µM | TGI (SK-OV-3 ovarian): 21.6 µM | GI50 (T-47D breast): 3.56 µM | TGI (T-47D breast): 84.5 µM | GI50 (U251 CNS): 2.37 µM | TGI (U251 CNS): 14 µM | GI50 (HOP-62 NSCLC): 4.24 µM | TGI (HOP-62 NSCLC): 23.2 µM | GI50 (UO-31 renal): 2.63 µM | TGI (UO-31 renal): 19.9 µM | GI50 (HOP-92 NSCLC): 4.15 µM | TGI (HOP-92 NSCLC): 49.2 µM | GI50 (RXF 393 renal): 2.52 µM | TGI (RXF 393 renal): 8.41 µM | GI50 (OVCAR-8 ovarian): 4.98 µM | TGI (OVCAR-8 ovarian): 29.7 µM | GI50 (SF-295 CNS): 2.99 µM | TGI (SF-295 CNS): 31.2 µM
